Read-outs that look alike come from different tables or passages of the source.
Columns and labels:
CMV promoter [1] = assay: Transient transfection of HeLa cells with CMV-BLA (pCMV-BLA) reporter plasmid, Bla staining (blue cells); type: cell-based, human; conditions: for Bla staining at 60 min. / fold-ind. at 60 min. (Bla): Table 6; for fold-ind. at 60 min. (Bla): vs DMSO
Experimental: (§1) The p21m-BLA reporter plasmid was tested in transient transfection experiments of HeLa cells to evaluate the responsiveness of the minimal p21 promoter and the Bla reporter system to known HDAC inhibitors. In the first two transfection experiments, HeLa cells were transfected with 1 or 2 μg of Bla reporter plasmid containing either p21 minimal promoter (p21m-BLA) or CMV promoter (CMV-BLA) and 0.1 μg of pCMV-Luc or pRSV-Luc control plasmids. Different DNA-FUGENE transfection reagent ratios were tested (FUGENE is available from Roche Applied Science, Indianapolis, Ind.). […] Data are summarized below in Tables 1 and 2.
The percentage of β-lactamase-positive cells increased with time independent of the presence of HDAC inhibitors and was constantly higher with p21m-BLA than with pCMV-BLA.
In light of the above, the lack of apparent Bla activation in the above transfection experiments might have been due to the high sensitivity of the method. Therefore, transient transfections in which an accurate titration of the reporter plasmid DNA were performed. The titration of the reporter plasmid included using amounts lower than was used above. […] The transient transfections were repeated and the result confirmed (Table 7).

[2] = test system: HDAC activity (acetylated histone H3); assay: Acetylation of core histones (inhibition of HDAC activity) in HeLa cells, acetylated histone H3 immunoblot; type: cell-based, human; conditions: read-out: AcH3 EC50
Experimental: Induction of endogenous p21 and acetylation of core histones (inhibition of HDAC activity) was as follows. Dose-response experiments were performed in HeLa cells with different classes of known HDAC inhibitors. […] An α-tubulin-specific antibody (Sigma, St. Louis, Mo.; catalog number: T9026) was used as an internal standard. Quantitative data were obtained by densitometric analysis of X-ray films and were normalized for the internal standard values.

clone 1.17 cells = assay: Growth inhibition, CYTOSTAR 14C-thymidine uptake; type: cell-based; conditions: Homo sapiens, 48 h, read-out: ^14C-thymidine EC50
Experimental: Cells were seeded in a CYTOSTAR-T plate at about 7000 to 10000 cells per well in 100 μL of complete DMEM and incubated 4 hours at 37° C., 5% CO2. Next, 25 μL per well of HDAC inhibitor or DMSO (vehicle control) 5× solutions in complete DMEM was added to the wells along with 5 μL per well of ^14C-thymidine diluted 1:3 in H2O (1.65 μL of thymidine per well, 55 mCi/mmol; 225 μCi/mg; 50 μCi/mL (10 μM final concentration) and incubated at 37° C., 5% CO2. Incorporation of ^14C-thymidine was monitored after 24, 48, and 72 hours by reading the plate in a Packard Instruments TOP-COUNT (CYTOSTAR ^14C method).

CMV promoter [3] = assay: Luc activity of co-transfected pCMV-Luc control plasmid in HeLa cells; type: cell-based, human; conditions: 400 nM, 12 hours
Experimental: as §1

RSV promoter = assay: Luc activity of co-transfected pRSV-Luc control plasmid in HeLa cells; type: cell-based, human; conditions: Table 2, 400 nM, 12 hours
Experimental: as §1

HeLa cells = conditions: saturating amounts, after 48 hours; cited from earlier work
[4] = Table 3, 2 μg pCMV-BLA + 0.1 μg pCMV-Luc, 12 hr treatment, TSA 300 nM, Apicidin 1 μM
[5] = Table 3, 2 μg pCMV-BLA + 0.1 μg pCMV-Luc, 24 hr treatment, TSA 300 nM, Apicidin 1 μM
[6] = Apicidin 1 μM, pCMV-BLA 0.02 μg DNA
[7] = Apicidin 1 μM, pCMV-BLA 0.05 μg DNA
[8] = Apicidin 1 μM, pCMV-BLA 0.1 μg DNA
[9] = Apicidin 1 μM, pCMV-BLA 0.2 μg DNA
[10] = Apicidin 1 μM, pCMV-BLA 0.5 μg DNA

CCC(=O)CCCCC[C@@H]1NC(=O)[C@H]2CCCCN2C(=O)[C@H]([C@@H](C)CC)NC(=O)[C@H](Cc2cn(OC)c3ccccc23)NC1=O [Apicidin]
% Blue cells (CMV promoter [1]; Table 3, 2 μg pCMV-BLA + 0.1 μg pCMV-Luc, 6 hr treatment, TSA 300 nM, Apicidin 1 μM): 4%
% Blue cells (CMV promoter [1]; [4]): 3%
% Blue cells (CMV promoter [1]; [5]): 10%
Bla staining at 60 min. (CMV promoter [1]; Apicidin 1 μM, pCMV-BLA 0 μg DNA): 0%
Bla staining at 60 min. (CMV promoter [1]; [6]): 5%
fold-ind. at 60 min. (Bla) (CMV promoter [1]; [6]): 1 fold
Bla staining at 60 min. (CMV promoter [1]; [7]): 5-10%
fold-ind. at 60 min. (Bla) (CMV promoter [1]; [7]): 1 fold
Bla staining at 60 min. (CMV promoter [1]; [8]): 10-15%
fold-ind. at 60 min. (Bla) (CMV promoter [1]; [8]): 1 fold
Bla staining at 60 min. (CMV promoter [1]; [9]): 20%
fold-ind. at 60 min. (Bla) (CMV promoter [1]; [9]): 1 fold
Bla staining at 60 min. (CMV promoter [1]; [10]): 40%
fold-ind. at 60 min. (Bla) (CMV promoter [1]; [10]): 1 fold
EC50 ([2]; Homo sapiens, HeLa, 13 h): 110 nM
EC50 (clone 1.17 cells): 410 nM

CC(/C=C/C(=O)NO)=C\[C@@H](C)C(=O)c1ccc(N(C)C)cc1 [TSA, Trichostatin A]
% Blue cells (CMV promoter [1]; Table 1, 400 nM, 12 hours induction, 1 μg CMV-BLA + 3 μL F): 5%
% Blue cells (CMV promoter [1]; Table 1, 400 nM, 12 hours induction, 2 μg CMV-BLA + 6 μL F): 15-20%
% Blue cells (CMV promoter [1]; Table 2, 400 nM, 12 hours induction, 1 μg CMV-BLA + 3 μL F): 5%
% Blue cells (CMV promoter [1]; Table 2, 400 nM, 12 hours induction, 2 μg CMV-BLA + 6 μL F): 5%
% Blue cells (CMV promoter [1]; Table 2, 400 nM, 12 hours, 1 μg CMV-BLA + 3 μL F + CMV-luc): 5%
% Blue cells (CMV promoter [1]; Table 2, 400 nM, 12 hours, 1 μg CMV-BLA + 3 μL F + RSV-luc): 7%
% Blue cells (CMV promoter [1]; Table 2, 400 nM, 12 hours, 2 μg CMV-BLA + 6 μL F + CMV-luc): 7%
% Blue cells (CMV promoter [1]; Table 2, 400 nM, 12 hours, 2 μg CMV-BLA + 6 μL F + RSV-luc): 7%
% Blue cells (CMV promoter [1]; [4]): 4-5%
% Blue cells (CMV promoter [1]; [5]): 15%
RLU/mg (CMV promoter [3]; Table 1, 1 μg CMV-BLA + 3 μL F, control plasmid not given): 8986 RLU/mg
RLU/mg (CMV promoter [3]; Table 1, 1 μg p21m-BLA + 3 μL F, control plasmid pCMV-Luc or pRSV-Luc, not specified): 52035 RLU/mg
RLU/mg (CMV promoter [3]; Table 1, 1 μg p21m-BLA + 5 μL F, control plasmid not given): 29022.4 RLU/mg
RLU/mg (CMV promoter [3]; Table 2, 2 μg CMV-BLA + 6 μL F + CMV-luc): 13085.6 RLU/mg
RLU/mg (CMV promoter [3]; Table 2, 2 μg p21BLA + 6 μL F + CMV-luc): 105942 RLU/mg
RLU/mg (RSV promoter; 1 μg CMV-BLA + 3 μL F + RSV-luc): 7964.46 RLU/mg
RLU/mg (RSV promoter; 1 μg p21m-BLA + 3 μL F + RSV-luc): 24437.8 RLU/mg
RLU/mg (RSV promoter; 2 μg CMV-BLA + 6 μL F + RSV-luc): 4972 RLU/mg
RLU/mg (RSV promoter; 2 μg p21m-BLA + 6 μL F + RSV-luc): 29989.4 RLU/mg
EC50 ([2]; HeLa cells, 13 hour treatment, immunoblot densitometry): 130 nM
remission from cell cycle arrest (HeLa cells): complete remission from cell cycle arrest

From patent US20080057529A1, “Method for Identifying Histone Deacetylase Inhibitors” (priority 2003, published 2008)
